The values that follow come from ChEMBL document CHEMBL1201862, “PubChem BioAssay data set” (2004).

Activity calls are given as the source filed them. Non-standard residues stand in square brackets, D forms with d. Residues, ends and D or L forms follow the SMILES beside them. ξ: configuration not given here. *: point of attachment. Trx = NC[C@H]1CC[C@H](C(=O)O)CC1; Tic = O=C(O)[C@@H]1Cc2ccccc2CN1; Ile(3ξ) = CCC(C)[C@H](N)C(=O)O; Boc = CC(C)(C)OC(=O)*

Assay [1] has as its target Induced myeloid leukemia cell differentiation protein Mcl-1 (Homo sapiens, UniProt Q07820). Format: functional.
Assay [2] in a line: viability of PTEN-deleted HCT116 cells – cell-based, HCT116 PTEN knockout, dose response (AID 1047).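 Note: HCT116 colon tumor cells with PTEN knocked out; cells exposed to compound for 60 hours before readout; potency for loss of cell viability measured by luminescence.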 Type of assay: functional.
The nature of assay [3]: viability of HCT116 lacking mutant beta-catenin – cell-based, human colon tumor, dose response (AID 1045).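 Note: HCT116 colon tumor cells with beta catenin knocked out; cells exposed to compound for 60 hours.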 Format: functional.
Assay [4] can be described thus: Trypanosoma cruzi growth suppression in host cells – NIH3T3 host cells, beta-gal luminescence, confirmation (AID 2044).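 Note: intracellular parasites grown in NIH/3T3 mouse fibroblasts as host cells; luminescent beta-galactosidase reporter signal from transgenic T. cruzi replicating inside host cells; inhibitors lower the luminescence signal.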 Format: functional, cell-based.
A short description of assay [5]: NIH3T3 cell viability loss – ATP luminescence, mouse fibroblasts, counter-screen, dose response (AID 2010).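 Note: cells exposed to compound for about 90 hours before reading.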 Type of assay: functional, cell-based.
In assay [6] the target is T1, High affinity choline transporter 1 (Homo sapiens, UniProt Q9GZV3).
T1 sequence (Q9GZV3 whole entry): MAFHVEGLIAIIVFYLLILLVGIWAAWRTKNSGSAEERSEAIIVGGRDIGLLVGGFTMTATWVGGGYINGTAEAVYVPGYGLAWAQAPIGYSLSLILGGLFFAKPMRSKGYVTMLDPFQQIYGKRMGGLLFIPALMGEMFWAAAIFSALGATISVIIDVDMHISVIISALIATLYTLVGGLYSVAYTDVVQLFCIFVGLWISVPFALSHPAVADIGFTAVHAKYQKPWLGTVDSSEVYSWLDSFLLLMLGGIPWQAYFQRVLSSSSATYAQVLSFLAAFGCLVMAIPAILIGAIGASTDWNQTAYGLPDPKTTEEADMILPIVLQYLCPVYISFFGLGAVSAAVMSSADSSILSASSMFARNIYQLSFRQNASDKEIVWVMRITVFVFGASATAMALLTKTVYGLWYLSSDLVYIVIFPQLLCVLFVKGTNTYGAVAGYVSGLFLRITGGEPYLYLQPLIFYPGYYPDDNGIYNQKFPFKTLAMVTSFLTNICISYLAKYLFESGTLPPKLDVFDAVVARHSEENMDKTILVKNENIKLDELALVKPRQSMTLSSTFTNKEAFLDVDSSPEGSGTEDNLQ
Kind of assay: human choline transporter blockers, potency – cell-based, 5-point CRC, membrane potential dye, dose response (AID 504840). Type of assay: functional.

In assay [7] the target is T2, Corticotropin-releasing factor receptor 2/Corticotropin-releasing factor-binding protein (Homo sapiens, UniProt P24387+Q13324).
T2 sequence (Q13324 whole entry): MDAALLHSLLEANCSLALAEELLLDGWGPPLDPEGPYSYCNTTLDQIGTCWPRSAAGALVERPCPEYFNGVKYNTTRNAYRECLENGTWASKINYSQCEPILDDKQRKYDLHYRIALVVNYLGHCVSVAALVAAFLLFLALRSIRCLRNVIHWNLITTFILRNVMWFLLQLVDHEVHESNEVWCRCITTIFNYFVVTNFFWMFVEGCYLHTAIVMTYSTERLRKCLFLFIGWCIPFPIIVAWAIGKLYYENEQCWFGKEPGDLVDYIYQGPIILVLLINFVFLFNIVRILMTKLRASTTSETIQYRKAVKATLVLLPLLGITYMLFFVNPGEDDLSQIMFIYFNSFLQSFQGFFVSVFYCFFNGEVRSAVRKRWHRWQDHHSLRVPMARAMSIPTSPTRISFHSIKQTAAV
T2 sequence (P24387 whole entry): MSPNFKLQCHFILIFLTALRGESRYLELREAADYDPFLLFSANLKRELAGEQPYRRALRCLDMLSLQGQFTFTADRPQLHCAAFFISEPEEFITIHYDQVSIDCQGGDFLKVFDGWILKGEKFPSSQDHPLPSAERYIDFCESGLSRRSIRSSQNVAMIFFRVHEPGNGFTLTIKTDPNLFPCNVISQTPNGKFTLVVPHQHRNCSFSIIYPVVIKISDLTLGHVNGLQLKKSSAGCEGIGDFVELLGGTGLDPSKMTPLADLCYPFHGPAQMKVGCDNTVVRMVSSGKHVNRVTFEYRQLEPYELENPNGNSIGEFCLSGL
Kind of assay: Dose Response confirmation of uHTS hits for small molecule antagonists of the CRF-binding protein and CRF-R2 receptor complex. Type of assay: functional. The note with it: read-out: IC50_Mean.

In assay [8] the target is T2, Corticotropin-releasing factor receptor 2/Corticotropin-releasing factor-binding protein. Kind of assay: activators of CRF receptor 2 with binding protein – uHTS hits, confirmation (AID 602473). The note with it: read-out: EC50_Mean. Type of assay: functional.
For assay [9], the target named is T3, DNA repair protein RAD52 homolog (Homo sapiens, UniProt P43351).
T3 sequence (P43351 whole entry): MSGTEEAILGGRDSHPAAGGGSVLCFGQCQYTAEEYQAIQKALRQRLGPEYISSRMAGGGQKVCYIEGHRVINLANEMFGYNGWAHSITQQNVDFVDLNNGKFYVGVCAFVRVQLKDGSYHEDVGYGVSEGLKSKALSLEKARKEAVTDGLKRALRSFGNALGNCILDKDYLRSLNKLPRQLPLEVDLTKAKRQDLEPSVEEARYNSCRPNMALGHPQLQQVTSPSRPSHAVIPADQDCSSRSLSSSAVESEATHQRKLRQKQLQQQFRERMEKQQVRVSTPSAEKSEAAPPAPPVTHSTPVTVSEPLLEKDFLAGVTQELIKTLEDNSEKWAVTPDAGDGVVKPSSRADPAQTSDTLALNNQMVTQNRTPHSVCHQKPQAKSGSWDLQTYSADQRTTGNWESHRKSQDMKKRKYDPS
Type of assay: functional, biochemical.

Assay [10] can be described thus: reduction of Shn3 3'UTR-driven luciferase in osteoblasts – cell-based, Clone20 osteoblasts, firefly luciferase, cherry-picked, dose response (AID 624132).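 Note: firefly luciferase luminescence from reporter carrying the Shn3 3'UTR in osteoblasts.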 Type of assay: functional.
Assay [11] is described as follows: non-specific 3'UTR reporter inhibition in Clone20-Shn3RL – cell-based, Renilla luciferase, cherry-picked, counter-screen for Shn3 inhibitor project, dose response (AID 624133). Type of assay: functional.
Assay [12] in a line: loss of viability in HepG2 cells – cell-based, CellTiter-Glo, cherry-picked, cytotoxicity control for Shn3 inhibitor project, dose response (AID 624134). Format: functional.
Assay [13] is described as follows: NIH-3T3 fibroblast cytotoxicity, dose response, cytotoxicity control, cell-based, fluorescence, Alamar Blue, secondary assay (AID 2327).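 Note: NIH-3T3 mouse fibroblasts cultured with fluconazole at 8 µg/mL.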 Format: functional.
Assay [14] is described as follows: fluconazole-exposed Candida albicans growth modulators – fluorescence, retest, confirmation (AID 2467). Format: functional, cell-based.
Assay [15] concerns the target Luciferin 4-monooxygenase (Photinus pyralis, UniProt P08659). Kind of assay: inhibition of purified Photinus pyralis luciferase – biochemical, luminescence, dose response (AID 1891).
The nature of assay [16]: Luminescence Cell-Based Dose Confirmation HTS to Identify Inhibitors of Platelet Dense Granule Release. [Related pubchem assays: 1663 (Primary HTS), 1678 (Summary of Project)]. Type of assay: functional.
A short description of assay [17]: activation of miR-122 Renilla sensor silencing – cell-based, Huh7 psiCHECK-miR122, Renilla luciferase, cherry-picked, dose response (AID 651956).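 Note: huh7 hepatoma cells stably carrying a psiCHECK-2 miR-122 sensor plasmid; renilla luciferase signal reporting endogenous miR-122 activity after 48 h compound exposure.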 Format: functional.

Induced myeloid leukemia cell differentiation protein Mcl-1, sequence (Q07820 whole entry): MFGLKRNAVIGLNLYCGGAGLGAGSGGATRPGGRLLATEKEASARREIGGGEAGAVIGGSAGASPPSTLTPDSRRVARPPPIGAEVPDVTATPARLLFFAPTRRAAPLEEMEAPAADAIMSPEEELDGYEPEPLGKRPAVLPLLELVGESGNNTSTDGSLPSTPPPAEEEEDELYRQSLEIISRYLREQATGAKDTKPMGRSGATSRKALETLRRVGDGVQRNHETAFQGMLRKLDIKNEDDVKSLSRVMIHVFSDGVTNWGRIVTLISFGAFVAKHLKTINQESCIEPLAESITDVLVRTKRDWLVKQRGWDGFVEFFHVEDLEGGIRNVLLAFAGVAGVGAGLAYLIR
Luciferin 4-monooxygenase, sequence (P08659 whole entry): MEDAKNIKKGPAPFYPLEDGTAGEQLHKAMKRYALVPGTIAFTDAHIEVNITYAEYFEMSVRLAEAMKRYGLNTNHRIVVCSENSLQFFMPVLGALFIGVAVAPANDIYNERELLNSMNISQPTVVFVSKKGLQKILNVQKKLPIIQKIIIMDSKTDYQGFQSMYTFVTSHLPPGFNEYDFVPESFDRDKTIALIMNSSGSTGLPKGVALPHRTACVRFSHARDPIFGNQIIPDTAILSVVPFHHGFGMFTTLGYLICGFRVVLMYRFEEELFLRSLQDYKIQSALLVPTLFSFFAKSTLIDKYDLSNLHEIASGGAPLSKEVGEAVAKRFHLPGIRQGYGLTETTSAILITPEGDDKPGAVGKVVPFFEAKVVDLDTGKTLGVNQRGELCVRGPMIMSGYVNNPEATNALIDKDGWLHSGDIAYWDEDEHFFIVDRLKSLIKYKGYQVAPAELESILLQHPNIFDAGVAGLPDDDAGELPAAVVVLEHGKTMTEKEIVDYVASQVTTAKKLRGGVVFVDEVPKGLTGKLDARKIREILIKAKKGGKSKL

Take `CN(C)c1ccc(NC(=O)CCCc2ccccc2)cc1`: in assay [1], the IC50 is recorded as 4.98 µM (not active). Regarding `COc1ccc(NC(=O)C(C)Sc2nnc3c4c(nc(-c5ccc(OC)cc5)n23)CC(C)(C)OC4)cc1` (stereo not given), the EC50 in assay [2] was 27 µM (active); in assay [3], 58.9 µM (active). Regarding `CCOC(=O)N1CCN(C(=O)c2oc3ccc(S(=O)(=O)N4CCCCCC4)cc3c2C)CC1`, the EC50 in [4] is 2.02 µM (active); in assay [5], > 60 µM (not active). Further, the IC50 in [6] is 13.2 µM (active). For the compound `O=C(NCCCO)C(=O)Nc1cc2c3c(c1)CCN3C(=O)CC2`, the IC50 in [7] was > 47.1 µM (inactive). Also, the EC50 in assay [8] is > 53 µM (inactive). Taken in the same sequence, the figures for `COCCn1nnnc1C(c1ccccc1)N1CCN(c2ccccc2)CC1` (stereo not given) were > 47.1 µM (inactive) and > 53 µM (inactive). Turning to `COc1cc2c(cc1OC)CN(c1nc(CN3CCCC3)nc3sc(C)c(C)c13)CC2`, the EC50 in assay [4] was 0.278 µM (active); in [5], > 60 µM (not active). Also, the AC50 in assay [9] was 11.5 µM (active). With `Cc1csc(=N)n1CC(=O)N1CCc2ccccc21`, the IC50 in assay [6] is 13.2 µM (active). In the case of `CCc1ccc(N2C(=O)NC(=O)/C(=C\NCCN(CC)CC)C2=O)cc1`, the AC50 in assay [10] was > 70 µM (inactive); in [11] it was 27.8 µM (active). Regarding `N=C(N)SCc1ccccn1`, the IC50 in assay [6] was 13.2 µM (active). As to `Cc1ccc(S(=O)(=O)N2C[C@@H]3CCCC[C@@H]3[C@@H](C)[C@H]2c2cn(Cc3ccccc3)c3ncccc23)cc1`, the concentration at half-maximal activity (AC50) was 1.92 µM (active) in [10], 2.47 µM (active) in assay [12] and 4.12 µM (active) in assay [11]. Turning to `Cc1ccc(C2CC2C(=O)NN=C(S)Nc2cccc(Cl)c2)cc1` (stereo not given), the EC50 was > 160 µM (inactive) in assay [13] and > 38 µM (not active) in assay [14]. Also, the IC50 in assay [6] was 15.8 µM (active). Consider `O=C(c1cccc(NS(=O)(=O)c2ccc(F)c(F)c2)c1)N1CCN(C(c2ccccc2)c2ccccc2)CC1`, for which the IC50 in assay [7] is > 47.1 µM (inactive). Moreover, the EC50 in assay [8] was > 53 µM (inactive).

In the case of `COc1ccccc1N1CCN(C(=O)C2CCCN(S(=O)(=O)c3ccc4c(c3)CCCN4C(C)=O)C2)CC1` (stereo not given), the results for the half-maximal activity concentration (AC50) in [10], in assay [12] and in [11] were 2.68 µM (active), 50.9 µM (active) and 1.15 µM (active), respectively. As to `CCOc1ccc2nc(O)c(CN(Cc3cccs3)C(CC)c3nnnn3C(C)(C)CC)cc2c1` (stereo not given), the EC50 was 4.69 µM (active) in assay [2] and 5.11 µM (active) in [3]. In the case of `CCOc1ccc(C(=O)OCC(=O)Nc2cccnc2Cl)cc1OCC`, the IC50 in assay [7] is > 47.1 µM (inactive). For the same compound, in assay [8], the EC50 was > 53 µM (inactive). Regarding `CC(C)C[C@@H](CN1CCCC1CN1C(=S)NC[C@@H]1Cc1ccc(O)cc1)N1C[C@H](Cc2ccc(O)cc2)N(CC2CCCCCC2)C1=S` (stereo not given in full), the concentration at half-maximal activity (AC50) is 18.8 µM (active) in assay [10], 22.7 µM (active) in [12] and 16.9 µM (active) in [11]. Taken in the same sequence, the figures for `O=C(NNC(=O)C1CCN(S(=O)(=O)c2ccc(Cl)cc2)CC1)c1ccccc1O` were 18.5 µM (active), 63.1 µM (active) and 6.86 µM (active). As to `O=C(CC(CC(=O)c1ccccc1)c1ccncc1)c1ccccc1`, the IC50 in assay [7] is > 47.1 µM (inactive). Also, in assay [8], the EC50 is > 53 µM (inactive).

Consider `Cc1cccc(/N=C/c2sc3ccccc3c2O)n1`, for which the EC50 is 1.02 µM (active) in assay [15] and 22.1 µM (active) in assay [16]. For the same compound, the IC50 in assay [1] was 1.57 µM (active). On to `CCCCN(C(=O)c1ccc2c(c1)S(=O)(=O)N=C1CCCCCN12)c1c(N)n(CCCC)c(=O)[nH]c1=O`, for which, in assay [7], the IC50 is > 47.1 µM (inactive). In addition, in assay [8], the EC50 was > 53 µM (inactive). The corresponding values for `CC(C)(C)NC(=O)C(c1ccc(O)cc1)N(Cc1ccc2c(c1)OCO2)C(=O)CCl` (stereo not given) are > 47.1 µM (inactive) and > 53 µM (inactive). In the case of `C[C@@H]1CN([C@H](C)CO)S(=O)(=O)c2ccc(C3=CCCCC3)cc2O[C@@H]1CN(C)C(=O)Cc1ccncc1`, the AC50 in assay [17] is 8.26 µM (active). In the case of `Cc1ccc(-c2ccc3c(c2)O[C@H](CN(C)C(=O)CC2CC2)[C@H](C)CN([C@H](C)CO)S3(=O)=O)cc1`, the AC50 in [17] is 10.7 µM (active).

As to `COc1cccc(-c2ccc3c(c2)O[C@H](CN(C)C(=O)C2CCOCC2)[C@H](C)CN([C@@H](C)CO)S3(=O)=O)c1`, the concentration at half-maximal activity (AC50) in assay [17] was 6.42 µM (active).

With `CN1C(=O)c2cc(NS(=O)(=O)c3ccc(Cl)cc3)ccc2OC[C@H]2O[C@H](CC(=O)N3CCc4ccccc4C3)CC[C@@H]21`, the concentration at half-maximal activity (AC50) in assay [17] is 14.8 µM (active).

Regarding `C[C@@H]1CN([C@@H](C)CO)C(=O)c2cc(NC(=O)Nc3cccc4ccccc34)ccc2O[C@@H](C)CCCCO[C@H]1CN(C)CC1CCCCC1`, in assay [17], the AC50 is 8.95 µM (active).

Consider `Nc1ccc(CC(N)c2csc(Nc3ncccn3)n2)cc1` (stereo not given), for which the concentration at half-maximal activity (AC50) in assay [9] is 19.2 µM (active). With `O=C(N/N=C/c1ccccc1OC(=O)c1ccc2c(c1)OCO2)c1ccccc1`, the EC50 in assay [2] was 20.9 µM (active); in assay [3] it was 18.9 µM (active). For `O=C(O)CCN1C(=O)/C(=C\c2ccc(-c3nc4ccccc4s3)o2)SC1=S`, in [1], the IC50 was 1.53 µM (active). Consider `CC(C)COc1nc2ccccc2nc1N1CCN(C)CC1`, for which the IC50 in [6] is 15.1 µM (active). Take `Cc1cc(N2CCC(N(C)C3CCCC3)CC2)nc2cc(O)ccc12`: the AC50 in [9] is 11.3 µM (active).

For `CCC(C)[C@H](NC(=O)[C@@H]1Cc2ccccc2CN1C(=O)OC(C)(C)C)C(=O)NC[C@H]1CC[C@H](C(=O)O)CC1` (stereo not given in full) (Boc-[Tic]-[Ile(3ξ)]-[Trx]-OH), the IC50 in assay [7] was > 47.1 µM (inactive). Besides, in [8], the EC50 was > 53 µM (inactive).
